# Laboratory results from paper PMC6941357, “An in vitro toolbox to accelerate anti-malarial drug discovery and development” (Malaria Journal, 2020).
# Values joined by “and” are separate entries in the source; they are usually repeats but may differ in a detail not shown here. Identical values can stand only once. Like-named read-outs stand apart in the source and are kept apart here.
# Columns and labels:
# [1] = Solubility in biorelevant media; conditions: 37 °C
# Experimental: Solubility of each active pharmaceutical ingredient was evaluated at 37 °C in pH 7.4 phosphate buffered saline (prepared as described for the partitioning experiments), fasted (FaSSIF-V2) and fed (FeSSIF-V2) state simulated intestinal fluids and fasted state simulated gastric fluid (FaSSGF) as described by Jantratid et al.. […] Samples were vortexed and placed in a 37 °C incubator on an orbital mixer (IKA® VXR basic Vibrax® orbital mixer) set at 600 rpm. Sampling times were 1 h for FaSSGF or 5–6 h for FaSSIF-V2, FeSSIF-V2, and PBS. These times were used to reflect the maximal likely residence times within the stomach and small intestine, respectively. Sampling was carried out by centrifuging each sample at 10,000 rpm for 3 min, transferring 300 µL aliquots into fresh Eppendorf tubes and centrifuging these tubes again at 10,000 rpm for 3 min. Triplicate aliquots of the supernatant were then removed and diluted 1:2 in 50% aqueous methanol and then again in 50% aqueous acetonitrile to be within the analytical concentration range. Samples were analysed by LC–MS along with calibration standards (Additional file 1: Table S2).
# [2] = Ionization constants by potentiometric titration; type: physicochemical; conditions: basic pKa (B), mean ± SD, n = 3 titrations
# Experimental: The autotitrator was controlled by Tiamo software (Version 1.3). pH measurements were conducted using a Metrohm LL Micro glass electrode which was calibrated on the day of use with calibration standards at pH 2, 4, 7 and 10. All reagents were standardized (directly or indirectly) against potassium hydrogen phthalate (Sigma-Aldrich, A.C.S. Acidimetric Standard). Titrant solutions were protected from carbon dioxide absorption by flushing with nitrogen before sealing or by the incorporation of a drying tube filled with self-indicating soda lime into the titration reaction vessel set-up.
# Aliquots were introduced directly into the titration vessel and diluted 1:10 with water (typical final compound concentration of 0.5 mM).
# [3] = Octanol/pH 7.4 buffer partition coefficient, shake flask; conditions: octanol/pH 7.4 buffer
# Experimental: Partition coefficients between octanol and pH 7.4 buffer were measured using a shake flask method. A stock solution of test compound in octanol was prepared at a concentration between 3 and 30 mg/mL based on the expected partition coefficient value. This stock solution was then diluted 3- and 10-fold with octanol and used to prepare the octanol phase for the partitioning experiments. Two different dilutions were used to confirm that there were no saturation effects. Phosphate buffered saline was prepared by combining 67 mM disodium hydrogen orthophosphate and sodium dihydrogen orthophosphate (both prepared in 43 mM NaCl) to a final pH of 7.4.
# Partitioning experiments were conducted by mixing equal volumes of the octanol (containing test compound) and aqueous phases and placing on a vibrating plate mixer in an incubator at 37 °C. […] An aliquot of the aqueous phase was carefully removed and centrifuged again to ensure no contamination from the octanol phase before sampling in duplicate and diluting with aqueous methanol for analysis. Diluted samples were analysed by LC–MS along with calibration standards (Additional file 1: Table S2) and partition coefficients were calculated from the ratio of the mean octanol to buffer concentration after accounting for the dilution factors. The partitioning results for the two time points were used to confirm that the partitioning experiment had reached equilibrium.
# physchem = assay: physchem
# Excerpt: Predicted Peff values were obtained from a calibration plot of literature Peff values vs measured Caco-2 Papp using either buffer or plasma as the transport medium (see Results section).
# Caco-2 cell monolayers [4] = assay: Bidirectional permeability across Caco-2 cell monolayers; conditions: matrix: human plasma, corrected for fu
# Experimental: Bidirectional permeability was assessed across Caco-2 cell monolayers as described previously. Briefly, permeability experiments were performed using either aqueous transport buffer (pH 7.4 Hanks balanced salt solution containing 20 mM HEPES) or human plasma (Australian Red Cross Blood Service) in both the apical and basolateral chambers. […] The final DMSO concentration in the donor solution was 0.1% v/v.
# Samples from the donor chamber were taken at the start and end of the experiment. […] Donor and acceptor samples were stored frozen at − 80 °C until analysis by LC–MS (Additional file 1: Table S2) with sample preparation as described previously. The mass balance and apparent permeability coefficient (Papp) were calculated as previously described.
# Where human plasma was used as the transport medium, Papp values were calculated as shown above, with correction for the fraction unbound (fu) in the donor solution Cdonorinitial×fu with fu determined at a similar concentration to that used in the transport experiment. The apparent flux of lucifer yellow was based on an endpoint measurement assuming no lag time. The efflux ratio was calculated as the ratio of the mean B–A to A–B Papp values.
# [5] = target: T1, Albumax medium (lipid rich bovine serum albumin) (Bos taurus, UniProt P02769); assay: Binding in Albumax medium via ultracentrifugation; type: in vitro ADME; conditions: bovine, Albumax medium, pH 7.4
# T1 construct: purchased Gibco, Thermo Fisher Scientific
# Experimental: (§1) An ultracentrifugation method adapted from a previous publication was initially used to assess plasma protein binding and binding in the other media. […] Additional ultracentrifuge tubes containing spiked matrix were maintained at 37 °C, 5% or 10% CO2 or normal atmosphere conditions, with aliquots being taken within 0.5 h of the start and at the end of ultracentrifugation to serve as controls for the assessment of stability and to obtain a measure of the total concentration (Ctotal). Following ultracentrifugation, the pH was checked and an aliquot of protein-free supernate was taken from each ultracentrifuge tube for determination of the unbound concentration (Cunbound).
# (§2) Total matrix and protein free samples were analysed using a matrix matching approach whereby each sample was mixed in a 1:1 ratio with the opposite blank medium (i.e. blank total matrix or blank protein free buffer). For example, plasma samples were mixed with blank pH 7.4 buffer whereas plasma supernatant samples were mixed with blank plasma. Each of the sample sets were then assayed against a common calibration curve prepared in a 1:1 mixture of total matrix and protein free pH 7.4 buffer. […] The standard deviation for fu was calculated using the propagation of errors approach as described previously. The potential for compound degradation was assessed by comparing the average value for Ctotal at the start and end of the experiment.
# [6] = Plasma protein binding via rapid equilibrium dialysis (RED), 10% plasma; type: in vitro ADME, human; conditions: human, 10% pooled plasma (diluted 1:10), pH 7.4, RED, 10% plasma corrected for dilution, 6 h dialysis
# Experimental: (§3) Pooled human plasma (n = 3–4 donors) was obtained by centrifugation of blood (collected by the Australian Red Cross Blood Service, Melbourne, Australia or the Volunteer Blood Donor Registry, Clinical Translation Centre, Walter & Eliza Hall Institute of Medical Research, Parkville, Australia), or sourcing pooled plasma directly from commercial sources (Innovative Research Inc, MI) and stored frozen at − 80 °C.
# Plasma was diluted 1:10 with pH 7.4 phosphate buffer (prepared by mixing 0.1 M sodium dihydrogen phosphate and 0.1 M disodium hydrogen phosphate (both containing 0.04 M NaCl) to pH 7.4) and spiked with compound to achieve a total measured concentration of ~ 1000–3000 ng/mL. Diluted plasma was vortex mixed briefly and aliquots (n = 3–4) were transferred to RED (Thermo Fisher Scientific, Waltham, MA) units that were placed at 37 °C under ambient atmosphere on a plate shaker. […] At the end of the dialysis period, samples were removed from both the donor and dialysate chambers of the RED units. […] Fraction unbound values were calculated for each individual RED unit and the mean and SD calculated for n = 3–4 replicates.
# Briefly, the RED device was exposed for two 30 min periods and one overnight period to fresh solutions of compound prepared in pH 7.4 buffer at approximately 10% of the total dialysis concentration. Following the preincubations, solutions were removed from the RED device and discarded. […] Samples were removed and analysed as described above.
# For binding assessments using 10% plasma, the unbound fraction (fu) in neat plasma was calculated using the average values for Ctotal and Cunbound and Eq.
# CYP3A4 = CYP3A4 (Homo sapiens, UniProt P08684); assay: Cytochrome P450 inhibition in human liver microsomes; conditions: highest concentration tested 20 µM
# Experimental: The CYP inhibition assay was based on a previous publication with minor modifications. The method uses human liver microsomes and a substrate-specific interaction approach which relies on the formation of a metabolite that is mediated by a specific CYP isoform. The specific CYP-mediated metabolic pathways, substrates, substrate Km values, positive control inhibitors and specific incubation conditions are shown in Additional file 1: Table S4. […] Samples were quenched by the addition of ice-cold acetonitrile containing diazepam as the analytical internal standard. Concentrations of the substrate-specific metabolites in quenched samples were determined by LC–MS (Additional file 1: Table S5) relative to calibration standards prepared in quenched microsomal matrix.
# The inhibitory effect of each test compound and positive control inhibitor was based on the reduction in the formation of the specific CYP-mediated metabolite (represented as percent inhibition of enzyme activity) relative to metabolite formation in the absence of inhibitor (i.e. control for maximal enzyme activity). […] The Km was determined under the same incubation conditions by measuring the rate of metabolite formation (pmol/min/mg protein) as a function of substrate concentration (Additional file 1: Table S4).
# human plasma = conditions: methods UF, ED, EP or not described per compound, ref [6]–[22] of Additional file 1; cited from earlier work
# in vitro = conditions: human, microsomes, pH 7.4, HLM CLint
# Experimental: (§4) The metabolic stability assay was adapted from a previously published method. […] Reactions were quenched at 2, 5, 15, 30 and 60 min by the addition of acetonitrile containing 150 ng/mL diazepam as internal standard. Control samples (containing no cofactor) were included (quenched at 2, 30 and 60 min) to monitor degradation in the absence of cofactor. Concentrations were determined by LC–MS (Additional file 1: Table S2) by comparison to the response for a single point calibration standard prepared in quenched microsomal matrix.
# (§5) Test compound concentration versus time data were fit using an exponential decay function to determine the first-order rate constant for substrate depletion. Where deviation from first-order kinetics was evident, only the initial linear portion of the logarithmic profile was utilized to determine the initial degradation rate constant (k, min^−1). Each substrate depletion rate constant was then used to calculate the in vitro intrinsic clearance value (CLint, in vitro, µL/min/mg protein) using Eq.
# (§6) Unbound in vitro CLint values were obtained by dividing the measured CLint by the measured fu in microsomes.
# human liver microsomes = assay: in vitro; conditions: human, 1 µM, pH 7.4
# Experimental: as §4, §5, §6
# Caco-2 cell monolayers [7] = conditions: cited from earlier work
# [8] = Plasma protein binding via ultracentrifugation (UC); type: in vitro ADME, human; conditions: human, neat pooled plasma, pH 7.4; ultracentrifugation, neat plasma; read-out: Fraction unbound, human plasma
# Experimental: as §3, §1, §2
# [9] = Binding to human liver microsomes via ultracentrifugation; type: in vitro ADME; conditions: human, liver microsomes, pH 7.4, 0.4 mg/mL protein, read-out: Fraction unbound, HLM
# Experimental: A suspension of human liver microsomes (HLM, XenoTech LLC, Lenexa, KS, USA) was prepared in 0.1 M phosphate buffer (pH 7.4) at a protein concentration of 0.4 mg/mL immediately prior to the experiment.
# as §1, §2
# [10] = matrix: human plasma, corrected for fu
# Sequence of CYP3A4 (P08684 whole entry, canonical isoform): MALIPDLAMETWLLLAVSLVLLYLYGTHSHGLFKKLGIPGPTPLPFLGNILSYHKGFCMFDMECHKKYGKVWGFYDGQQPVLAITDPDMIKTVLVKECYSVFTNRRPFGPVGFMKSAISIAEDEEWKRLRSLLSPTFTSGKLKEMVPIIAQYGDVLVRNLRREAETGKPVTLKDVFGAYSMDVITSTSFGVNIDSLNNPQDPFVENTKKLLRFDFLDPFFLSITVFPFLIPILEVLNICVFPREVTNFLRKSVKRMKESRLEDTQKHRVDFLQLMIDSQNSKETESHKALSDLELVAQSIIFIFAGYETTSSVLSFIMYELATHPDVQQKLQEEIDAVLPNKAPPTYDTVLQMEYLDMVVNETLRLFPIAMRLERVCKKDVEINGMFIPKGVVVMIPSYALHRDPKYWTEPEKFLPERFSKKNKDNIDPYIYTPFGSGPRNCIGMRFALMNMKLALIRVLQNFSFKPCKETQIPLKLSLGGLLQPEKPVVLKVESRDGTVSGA
# T1 sequence (P02769 25-607): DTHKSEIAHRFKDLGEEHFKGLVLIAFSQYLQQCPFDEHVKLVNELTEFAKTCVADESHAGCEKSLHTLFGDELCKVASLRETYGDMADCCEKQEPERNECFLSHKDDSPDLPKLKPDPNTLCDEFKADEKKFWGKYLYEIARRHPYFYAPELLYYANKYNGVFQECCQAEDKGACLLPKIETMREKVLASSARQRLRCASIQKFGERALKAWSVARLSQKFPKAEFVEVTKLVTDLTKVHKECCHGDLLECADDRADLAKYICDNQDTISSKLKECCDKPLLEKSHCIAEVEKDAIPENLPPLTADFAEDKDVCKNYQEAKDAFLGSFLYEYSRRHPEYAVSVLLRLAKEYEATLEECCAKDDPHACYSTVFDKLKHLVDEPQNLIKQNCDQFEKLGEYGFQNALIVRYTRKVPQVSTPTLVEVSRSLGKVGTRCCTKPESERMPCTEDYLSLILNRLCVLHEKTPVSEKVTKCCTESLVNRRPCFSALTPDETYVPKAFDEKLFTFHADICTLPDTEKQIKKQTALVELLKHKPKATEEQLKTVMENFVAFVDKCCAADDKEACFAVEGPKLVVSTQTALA
structure (smiles),measurement,setting,value
CC1(C)CC(O)(COc2ccc(C3CCC4(CC3)OOC3(O4)C4CC5CC(C4)CC3C5)cc2)CC(C)(C)N1 (stereo not drawn) [MMV052],Solubility FaSSGF (1 h),[1],13.0 µg/mL and 24.7 µM
same,Solubility FaSSIF-V2 (5–6 h),[1],1140 µg/mL and 2170 µM
same,Solubility FeSSIF-V2 (5–6 h),[1],> 2000 µg/mL and > 3800 µM
same,Solubility PBS7.4 (5–6 h),[1],49.6 µg/mL and 94.3 µM
same,Measured pKa,[2],8.3 ± 0.06 (B)
same,Measured Log D7.4,"[3]; shake flask, 37 °C",5.40
same,SLAD,physchem,7580 mg
same,An (absorption number),"physchem; Peff × tres/R, minimum 1",13
same,Ssi (estimated solubility in the small intestine),physchem; based on measured FaSSIF solubility,1140 µg/mL
same,Predicted human Peff,physchem; from Caco-2 Papp via calibration plot,11 10^−4 cm/s
same,A–B Papp,Caco-2 cell monolayers [4],> 300 10^−6 cm/s
same,B–A Papp,Caco-2 cell monolayers [4],> 300 10^−6 cm/s
CCN(CC)Cc1cc(Nc2ccnc3cc(Cl)ccc23)ccc1O [Amodiaquine],pKa,"[2]; aqueous solution (DMSO stock diluted 1:10 with water), read-out: Measured pKa",7 ± 0.02
same,"fraction unbound at […], 500 ng/mL",[5],0.67 ± 0.033
same,fraction unbound at 6 h,[6],0.086
same,logD,[3]; pH 7.4,2.95
same,IC50,"CYP3A4; CYP3A4 (midaz) IC50, human liver microsomes, CYP3A4 (midaz)",> 20 µM
same,IC50,"CYP3A4; CYP3A4 (test) IC50, human liver microsomes, CYP3A4 (test)",> 20 µM
same,Literature fu,human plasma,< 0.1
same,microsomal CLint at 1 µM,in vitro,308 µL/min/mg
same,Unbound CLint,human liver microsomes,339 µL/min/mg
same,Literature ER,"Caco-2 cell monolayers [7]; Caco-2, ref [33], [35] of Additional file 1",1.3
same,Literature Papp,"Caco-2 cell monolayers [7]; Caco-2 A-B, ref [33]–[35] of Additional file 1",16.0 ± 1.1 10-6 cm/sec
same,A–B Papp,Caco-2 cell monolayers [7]; [10],90 ± 8.3 10^−6 cm/s
same,B–A Papp,Caco-2 cell monolayers [7]; [10],63 ± 9.6 10^−6 cm/s
same,fraction unbound at […],[8],0.089 ± 0.008
same,fraction unbound at […],[9],0.91 ± 0.094
